# From ChEMBL document CHEMBL4130627, “Prodrugs of the Phosphoribosylated Forms of Hydroxypyrazinecarboxamide Pseudobase T-705 and Its De-Fluoro Analogue T-1105 as Potent Influenza Virus Inhibitors” (J Med Chem, 2018)
# Activity calls are given as the source filed them. The rule behind the calls is not given here.
# How the values were obtained:
# [1] = Cytotoxicity against MDCK cells assessed as change in cell morphology after 3 days by microscopic analysis; format: cell-based, Canis lupus familiaris; conditions: dog
# [2] = Cytotoxicity against MDCK cells assessed as reduction in cell viability after 3 days by formazan-based MTS assay; design: species or system Canis lupus familiaris; conditions: dog
# [3] = Cytotoxicity against HGPRT deficient 6-thioguanine-resistant MDCK cells assessed as change in cell morphology after 3 days by microscopic analysis; format: cell-based, Canis lupus familiaris; conditions: dog
# [4] = system: MDCK; assay: Prodrug activation in HGPRT deficient 6-thioguanine-resistant MDCK cells by RP-HPLC-UV analysis; format: cell-based, Canis lupus familiaris; conditions: dog
# [5] = system: MDCK; assay: Prodrug activation in MDCK cells by RP-HPLC-UV analysis; format: cell-based, Canis lupus familiaris; conditions: dog
# [6] = system: Influenza A virus; assay: microbe, parasite or virus in culture; conditions: MDCK, 72 h
# Description: Antiviral activity against Influenza virus A/X-31 infected in MDCK cells assessed as reduction in viral replication at 3 days post infection by microscopic analysis
# [7] = system: Influenza A virus; assay: microbe, parasite or virus in culture; conditions: MDCK, 72 h; remark: listed apart in the source
# Description: Antiviral activity against Influenza virus A/X-31 infected in MDCK cells assessed as reduction in viral replication at 3 days post infection by formazan-based MTS assay
# [8] = system: Influenza B virus; assay: microbe, parasite or virus in culture; conditions: Ned/537/05, MDCK, 72 h
# Description: Antiviral activity against Influenza virus B/Ned/537/05 infected in MDCK cells assessed as reduction in viral replication at 3 days post infection by microscopic analysis
# [9] = system: Influenza B virus; assay: microbe, parasite or virus in culture; conditions: Ned/537/05, MDCK, 72 h; remark: listed apart in the source
# Description: Antiviral activity against Influenza virus B/Ned/537/05 infected in MDCK cells assessed as reduction in viral replication at 3 days post infection by formazan-based MTS assay
# [10] = system: MDCK; assay: Prodrug activation in MDCK cells assessed as parent compound remaining at 714 uM after 19 hrs by RP-HPLC-UV analysis; format: cell-based, Canis lupus familiaris; conditions: dog
# [11] = system: MDCK; assay: Prodrug activation in MDCK cells assessed as T-1105-RMP formation at 714 uM after 19 hrs by RP-HPLC-UV analysis; format: cell-based, Canis lupus familiaris; conditions: dog
# [12] = system: MDCK; format: cell-based, Canis lupus familiaris; conditions: dog, 714 µM
# [13] = system: Influenza A virus; format: functional, organism-based; conditions: Influenza A virus (A/X-31(H3N2)); MDCK; 250 uM
# [14] = system: Influenza A virus; format: functional, organism-based; conditions: Influenza A virus (A/X-31(H3N2)); MDCK; 25 uM
# [15] = system: Influenza A virus; format: functional, organism-based; conditions: Influenza A virus (A/X-31(H3N2)); MDCK; 12 to 50 uM
# [16] = system: Influenza A virus; format: functional, organism-based; conditions: Influenza A virus (A/X-31(H3N2)); MDCK; 25 uM; remark: listed apart in the source
# [17] = system: unidentified influenza virus; assay: Antiviral activity against Influenza virus infected in human A549 cells; format: functional
# [18] = system: Influenza A virus; format: functional, organism-based; conditions: Influenza A virus (A/X-31(H3N2)); MDCK; 25 uM; remark: listed apart in the source
# [19] = system: Influenza A virus; format: functional, organism-based; conditions: Influenza A virus (A/X-31(H3N2)); MDCK; 25 uM; remark: listed apart in the source
# [20] = system: Influenza A virus; format: functional, organism-based; conditions: Influenza A virus (A/X-31(H3N2)); MDCK; 250 uM; remark: listed apart in the source
# [21] = system: Influenza A virus; format: functional, organism-based; conditions: Influenza A virus (A/X-31(H3N2)); MDCK; 12 to 50 uM; remark: listed apart in the source
# [22] = Drug metabolism in MDCK cells assessed as T-1105-RTP formation at 465 uM after 2 hrs in presence of 5mM ATP by RP-HPLC-UV analysis; format: ADME, cell-based, Canis lupus familiaris; conditions: dog
# [23] = system: MDCK; assay: Prodrug activation in MDCK cells assessed as T-1105-RMP formation at 465 uM after 1 to 840 mins by RP-HPLC-UV analysis; format: cell-based, Canis lupus familiaris; conditions: dog
# [24] = system: MDCK; assay: Cytotoxicity against MDCK cells assessed as reduction in cell viability at 37 uM after 3 days by formazan-based MTS assay; design: species or system Canis lupus familiaris; conditions: dog, 72 h
# [25] = target: Membrane-associated guanylate kinase, WW and PDZ domain-containing protein 1 (Homo sapiens) (UniProt Q96QZ7); assay: Inhibition of human recombinant guanylate kinase 1 mediated […] conversion at 400 uM preincubated for 10 mins followed by enzyme addition measured up to 60 mins by UV absorbance method relative to control
# [26] = target: Membrane-associated guanylate kinase, WW and PDZ domain-containing protein 1 (Homo sapiens) (UniProt Q96QZ7); assay: Inhibition of human recombinant guanylate kinase 1 mediated […] conversion at 200 uM preincubated for 10 mins followed by enzyme addition measured up to 60 mins by UV absorbance method relative to control
# [27] = target: Membrane-associated guanylate kinase, WW and PDZ domain-containing protein 1 (Homo sapiens) (UniProt Q96QZ7); assay: Inhibition of human recombinant guanylate kinase 1 mediated […] conversion at 100 uM preincubated for 10 mins followed by enzyme addition measured up to 60 mins by UV absorbance method relative to control
# [28] = Drug metabolism in MDCK cells assessed as T-1105-RTP formation at 465 uM in presence of GTP by RP-HPLC-UV analysis; format: ADME, cell-based, Canis lupus familiaris; conditions: dog
# [29] = system: MDCK; assay: Prodrug activation in HGPRT deficient MDCK cells assessed as T-1105-RMP formation at 465 uM after 1 to 840 mins by RP-HPLC-UV analysis; format: cell-based, Canis lupus familiaris; conditions: dog
# [30] = Drug metabolism in MDCK cells assessed as T-1105-RDP formation at 465 uM during 15 hrs by RP-HPLC-UV analysis; format: ADME, cell-based, Canis lupus familiaris; conditions: dog
# [31] = Drug metabolism in MDCK cells assessed as T-1105-RTP formation at 465 uM during 15 hrs by RP-HPLC-UV analysis; format: ADME, cell-based, Canis lupus familiaris; conditions: dog
# [32] = target: Membrane-associated guanylate kinase, WW and PDZ domain-containing protein 1 (Homo sapiens) (UniProt Q96QZ7); assay: Inhibition of human recombinant guanylate kinase 1 mediated […] conversion at 25 to 400 uM preincubated for 10 mins followed by enzyme addition measured up to 60 mins by UV absorbance method
# [33] = Prodrug activation in phosphate buffer at pH 7.3 assessed as half life for T-1105-RDP formation at 450 uM after 24 to 120 hrs by RP-HPLC-UV analysis; format: physicochemical; conditions: pH 7.3, 450 µM
# [34] = target: T1, Liver carboxylesterase (Sus scrofa, UniProt Q29550); assay: Prodrug activation assessed as pig liver esterase mediated metabolite formation at 450 uM up to 150 mins by RP-HPLC-UV analysis; format: ADME; conditions: isolated protein, 2.5 h
# T1 sequence (Q29550 whole entry): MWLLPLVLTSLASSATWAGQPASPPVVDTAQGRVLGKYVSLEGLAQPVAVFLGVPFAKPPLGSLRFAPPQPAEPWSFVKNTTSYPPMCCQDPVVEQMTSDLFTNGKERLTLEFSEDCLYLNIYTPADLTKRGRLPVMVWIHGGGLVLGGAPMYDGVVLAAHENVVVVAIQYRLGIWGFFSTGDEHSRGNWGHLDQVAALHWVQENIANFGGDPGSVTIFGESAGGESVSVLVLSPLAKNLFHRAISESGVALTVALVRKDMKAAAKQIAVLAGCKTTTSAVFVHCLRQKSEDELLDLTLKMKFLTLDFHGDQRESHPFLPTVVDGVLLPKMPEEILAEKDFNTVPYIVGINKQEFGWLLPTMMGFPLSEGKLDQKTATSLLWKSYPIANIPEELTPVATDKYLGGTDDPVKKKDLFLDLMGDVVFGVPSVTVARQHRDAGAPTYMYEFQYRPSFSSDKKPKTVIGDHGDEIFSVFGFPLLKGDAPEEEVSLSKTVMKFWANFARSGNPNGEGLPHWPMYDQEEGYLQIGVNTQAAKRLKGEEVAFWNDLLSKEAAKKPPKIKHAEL
# [35] = target: T1, Liver carboxylesterase; assay: Drug metabolism assessed as pig liver esterase mediated 4-((((((2R,3S,4R,5R)-5-(3-carbamoyl-2-oxopyrazin-1(2H)-yl)-3,4-dihydroxytetrahydrofuran-2-yl)methoxy)(hydroxy)phosphoryloxy)(hydroxy)phosphoryloxy)methyl)phenyl decanoate formation at 450 uM after 150 mins by RP-HPLC-UV analysis; format: ADME; conditions: isolated protein, 2.5 h
# [36] = Drug metabolism in MDCK cells assessed as T-1105-RDP formation at 450 uM up to 4 hrs by RP-HPLC-UV analysis; format: ADME, cell-based, Canis lupus familiaris; conditions: dog
# [37] = Drug metabolism in MDCK cells assessed as 4-((((((2R,3S,4R,5R)-5-(3-carbamoyl-2-oxopyrazin-1(2H)-yl)-3,4-dihydroxytetrahydrofuran-2-yl)methoxy)(hydroxy)phosphoryloxy)(hydroxy)phosphoryloxy)methyl)phenyl decanoate formation at 450 uM up to 4 hrs by RP-HPLC-UV analysis; format: ADME, cell-based, Canis lupus familiaris; conditions: dog
# [38] = system: MDCK; assay: Prodrug activation in MDCK cells assessed as T-1105-RMP formation at 450 uM up to 4 hrs by RP-HPLC-UV analysis; format: cell-based, Canis lupus familiaris; conditions: dog
# [39] = system: MDCK; assay: Prodrug activation in MDCK cells assessed as T-1105-RTP formation at 450 uM up to 4 hrs by RP-HPLC-UV analysis; format: cell-based, Canis lupus familiaris; conditions: dog
# [40] = system: MDCK; assay: Prodrug activation in MDCK cells assessed as T-1105-RDP formation at 500 uM after 2 hrs by RP-HPLC-UV analysis; format: cell-based, Canis lupus familiaris; conditions: dog
# [41] = system: MDCK; format: cell-based, Canis lupus familiaris; conditions: dog, 2 h, 500 µM
# [42] = system: A549; assay: Cytotoxicity against human A549 cells assessed as reduction in cell viability at 100 uM; format: cell-based; conditions: a549, 100 µM
# [43] = Inhibition of Influenza virus A/X-31 RNA dependent RNA polymerase using ApG primer [adenyl (3'-5') guanosine] and [8-3H]GTP after 1 hr by filter-based assay; design: species or system Influenza A virus (A/X-31(H3N2))
# [44] = Inhibition of Influenza virus B/Ned/537/05 RNA dependent RNA polymerase using ApG primer [adenyl (3'-5') guanosine] and [8-3H]GTP after 1 hr by filter-based assay
# [45] = system: Influenza A virus; format: functional, organism-based; conditions: Influenza A virus (A/X-31(H3N2)); MDCK; 6 uM
# [46] = system: Influenza A virus; format: functional, organism-based; conditions: Influenza A virus (A/X-31(H3N2)); MDCK; 12 to 25 uM
# [47] = system: unidentified influenza virus; assay: Potency index, ratio of T-1105 EC99 to compound EC99 for Influenza virus infected in human A549 cells; format: functional
# [48] = system: Influenza A virus; format: functional, organism-based; conditions: Influenza A virus (A/X-31(H3N2)); MDCK; 12 to 25 uM; remark: listed apart in the source
# Membrane-associated guanylate kinase, WW and PDZ domain-containing protein 1 (Homo sapiens), sequence (Q96QZ7 whole entry, the tested form may be a part): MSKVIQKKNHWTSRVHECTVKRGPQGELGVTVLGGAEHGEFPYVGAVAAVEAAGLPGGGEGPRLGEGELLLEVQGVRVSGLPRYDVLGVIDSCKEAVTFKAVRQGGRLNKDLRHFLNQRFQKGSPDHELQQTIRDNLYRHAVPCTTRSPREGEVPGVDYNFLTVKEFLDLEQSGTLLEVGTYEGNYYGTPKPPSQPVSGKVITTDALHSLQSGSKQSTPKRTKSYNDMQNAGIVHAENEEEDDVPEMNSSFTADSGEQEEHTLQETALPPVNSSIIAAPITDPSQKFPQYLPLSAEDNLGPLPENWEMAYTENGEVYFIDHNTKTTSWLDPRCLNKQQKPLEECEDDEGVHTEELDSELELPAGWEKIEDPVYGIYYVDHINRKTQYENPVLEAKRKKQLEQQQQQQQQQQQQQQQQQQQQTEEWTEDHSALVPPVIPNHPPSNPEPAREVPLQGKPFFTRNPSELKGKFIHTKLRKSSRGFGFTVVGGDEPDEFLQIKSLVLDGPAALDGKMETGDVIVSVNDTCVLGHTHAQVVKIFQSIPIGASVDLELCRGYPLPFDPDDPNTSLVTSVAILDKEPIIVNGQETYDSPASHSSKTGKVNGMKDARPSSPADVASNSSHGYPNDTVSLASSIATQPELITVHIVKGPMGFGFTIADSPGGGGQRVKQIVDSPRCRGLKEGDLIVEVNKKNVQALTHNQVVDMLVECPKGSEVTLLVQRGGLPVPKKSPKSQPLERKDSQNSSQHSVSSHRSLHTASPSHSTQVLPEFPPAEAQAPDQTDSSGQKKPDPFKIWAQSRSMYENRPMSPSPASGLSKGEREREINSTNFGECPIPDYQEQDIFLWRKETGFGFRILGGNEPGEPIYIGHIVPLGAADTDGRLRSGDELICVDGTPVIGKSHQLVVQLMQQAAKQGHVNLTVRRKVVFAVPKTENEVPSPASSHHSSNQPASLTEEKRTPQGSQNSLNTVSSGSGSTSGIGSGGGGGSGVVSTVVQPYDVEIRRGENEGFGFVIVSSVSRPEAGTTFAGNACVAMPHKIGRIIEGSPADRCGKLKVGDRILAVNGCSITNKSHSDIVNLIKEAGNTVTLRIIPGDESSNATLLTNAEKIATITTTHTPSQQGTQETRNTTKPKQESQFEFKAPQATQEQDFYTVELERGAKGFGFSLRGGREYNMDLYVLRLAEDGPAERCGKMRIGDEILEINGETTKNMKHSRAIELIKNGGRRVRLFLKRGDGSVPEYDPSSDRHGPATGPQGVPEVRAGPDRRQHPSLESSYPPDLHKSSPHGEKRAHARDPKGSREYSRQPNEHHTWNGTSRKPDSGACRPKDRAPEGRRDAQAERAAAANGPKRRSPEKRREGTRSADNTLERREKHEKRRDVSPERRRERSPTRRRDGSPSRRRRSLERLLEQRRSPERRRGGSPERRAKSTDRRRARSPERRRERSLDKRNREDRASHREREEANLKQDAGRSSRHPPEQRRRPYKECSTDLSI
smiles,measurement,setting,value
NC(=O)c1nc(Br)cnc1O,MCC at 72 h,[1],> 250 µM
same,CC50 at 72 h,[2],> 250 µM
same,MCC at 72 h,[3],> 250 µM
same,Drug metabolism,[4],Metabolite_Notdetected
same,Drug metabolism,[5],Metabolite_Notdetected
same,EC50,[6],> 250 µM
same,EC50,[7],> 250 µM
same,EC50,[8],> 250000 nM
same,EC50,[9],> 250000 nM
NC(=O)c1nccnc1O,MCC at 72 h,[1],> 250 µM
same,CC50 at 72 h,[2],> 250 µM
same,MCC at 72 h,[3],> 250 µM
same,Stability,[10],10%
same,Drug metabolism,[11],Metabolite_Detected
same,Drug metabolism,[12],Metabolite_Notdetected
same,inhibition,[13],Active
same,inhibition,[14],Active
same,inhibition,[15],Active
same,inhibition,[16],Active
same,EC99,[17],134 µM
same,inhibition,[18],inactive
same,inhibition,[19],inactive
same,inhibition,[20],Active
same,inhibition,[21],Active
same,EC50,[6],6.4 µM
same,EC50,[7],5.4 µM
same,EC50,[8],2800 nM
same,EC50,[9],2100 nM
NC(=O)c1nccn([C@@H]2O[C@H](COP(=O)(O)OP(=O)(O)O)[C@@H](O)[C@H]2O)c1=O,Drug metabolism,[22],Metabolite_Detected
same,Drug metabolism,[23],Metabolite_Detected
same,Activity,[24],Non-Toxic
same,inhibition,[25],82%
same,inhibition,[26],62%
same,inhibition,[27],37%
same,Drug metabolism,[28],Metabolite_Detected
same,Drug metabolism,[29],Metabolite_Detected
NC(=O)c1nccn([C@@H]2O[C@H](COP(=O)(O)O)[C@@H](O)[C@H]2O)c1=O,Drug metabolism,[30],Metabolite_Notdetected
same,Drug metabolism,[31],Metabolite_Notdetected
same,inhibition,[32],inactive
CCCCCCCCCC(=O)Oc1ccc(COP(=O)(OCc2ccc(OC(=O)CCCCCCCCC)cc2)OP(=O)(O)OC[C@H]2O[C@@H](n3ccnc(C(N)=O)c3=O)[C@H](O)[C@@H]2O)cc1.CCN(CC)CC,t1/2,[33],30 h
same,Drug metabolism,[34],Metabolite_Detected
same,Drug metabolism,[35],Metabolite_Detected
same,MCC at 72 h,[1],37 µM
same,CC50 at 72 h,[2],> 100 µM
same,MCC at 72 h,[3],22 µM
same,Drug metabolism,[36],Metabolite_Detected
same,Drug metabolism,[37],Metabolite_Detected
same,Drug metabolism,[38],Metabolite_Detected
same,Drug metabolism,[39],Metabolite_Notdetected
same,Drug metabolism,[40],Metabolite_Detected
same,Drug metabolism,[41],Metabolite_Detected
same,Activity,[42],Non-Toxic
same,IC50,[43],49 to 126 µM
same,IC50,[44],49 to 126 µM
same,inhibition,[45],Active
same,inhibition,[46],Active
same,inhibition,[16],Active
same,EC99,[17],72 µM
same,Ratio,[47],2
same,inhibition,[18],inactive
same,inhibition,[19],inactive
same,inhibition,[48],Active
same,EC50,[6],1.3 µM
same,EC50,[7],1 µM
same,EC50,[8],810 nM
same,EC50,[9],560 nM
